Measurements from publication PMC4528135, “Kinetic Investigations of the Role of Factor Inhibiting Hypoxia-inducible Factor (FIH) as an Oxygen Sensor” (The Journal of Biological Chemistry, 2015).

Biological target: T1, PHD2 (Homo sapiens, UniProt Q9GZT9)
T1 construct: The catalytic domain of PHD2 (residues 181–426) was purified as described; made in house
Test: Rapid quench-flow, PHD2 pre-steady-state product and succinate formation
Assay type: biochemical
Conditions: same mixture as stopped-flow, O2-saturated buffer 1:1, 5 °C, quenched with 1% CF3CO2H; for Rapid quench-flow kproduct: peptide hydroxylation by MALDI-TOF-MS, single exponential fit; for Rapid quench-flow ksuccinate: succinate by LC-MS
Method: Rapid quench-flow experiments were performed using the same conditions and preparation of the assay mixture as used in stopped-flow experiments. Rapid quench-flow equipment (TgK Scientific Ltd.) in an anaerobic glove box was used for the experiments. Samples were quenched with 1% CF3CO2H and analyzed using MALDI-TOF-MS (peptide hydroxylation) as described above or liquid chromatography-mass spectrometry (LC-MS, for succinate production). For LC-MS, chromatographic separation was performed at 50 °C using a Waters ACQUITY BEH Amide 1.7-μm, 2.1 × 100-mm column on a Waters ACQUITY^TM ultraperformance liquid chromatography system (Waters Corp., Milford, MA). The following eluents were used: mobile phase A: 10% H2O, 90% acetonitrile (v/v), 10 mM ammonium formate; mobile phase B: 50% H2O, 50% acetonitrile (v/v), 10 mM ammonium formate. The elution gradient was 0–7.0 min linear from 10 to 30% B, and 7.0–9.0 min at 10% B for re-equilibration of the column. A constant flow rate of 0.4 ml/min was used. Analytes were detected in negative ionization mode using single reaction monitoring on a Quattro triple quadrupole mass spectrometer (Waters) with a cone voltage of 15 V and a capillary voltage of 3.0 kV. The desolvation temperature was set to 250 °C, and the source temperature was set to 120 °C.
To investigate correlation of the spectroscopic observations with rates of product accumulation, equivalent reactions were analyzed by rapid quench-flow methodology. Anerobically prepared PHD2·Fe(II)·2OG·peptide substrate complexes were mixed with O2-saturated buffer in a 1:1 ratio; reactions were quenched at defined time points with 1% aqueous CF3CO2H. The level of peptide hydroxylation was assessed by MALDI-TOF-MS ([42]), and succinate accumulation was analyzed by LC-MS. To obtain rate constants for product accumulation, the results were fitted with a single exponential function (Fig. 5E and Table 3).

T1 sequence (Q9GZT9 181-426): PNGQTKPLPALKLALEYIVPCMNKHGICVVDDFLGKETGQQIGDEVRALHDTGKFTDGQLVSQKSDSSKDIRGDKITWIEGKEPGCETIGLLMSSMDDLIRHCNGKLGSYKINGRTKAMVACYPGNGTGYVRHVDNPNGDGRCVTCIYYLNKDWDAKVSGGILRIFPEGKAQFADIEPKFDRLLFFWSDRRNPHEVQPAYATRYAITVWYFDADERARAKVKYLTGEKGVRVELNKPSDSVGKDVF

Sequence “ELDLETLAPYIPMDGEDFQ [HIF-2α CODD, 19-mer fragment (523–541) of the HIF-2α C-terminal oxygen-dependent degradation domain, PHD2 substrate]” has a Rapid quench-flow kproduct of 0.0124 ± 0.0030 s⁻¹ and a Rapid quench-flow ksuccinate of 0.0120 ± 0.0070 s⁻¹.

“EELAQLAPTPGDAIISLDF [HIF-2α NODD, 19-mer fragment (398–416) of the HIF-2α N-terminal oxygen-dependent degradation domain, PHD2 substrate]” showed a Rapid quench-flow kproduct of 0.0199 ± 0.0032 s⁻¹ and a Rapid quench-flow ksuccinate of 0.0270 ± 0.0060 s⁻¹.
